{"source": "patent US20100047788A1", "about": "“METHOD AND KIT FOR DIAGNOSIS AND MONITORING OF THE TREATMENT OF CHRONIC TRIPANOSSOMIASIS AND CHAGAS DISEASE” (FUNDACÃO UNIVERSIDADE DE BRASÍLIA CDTCAMPUS UNIVER, priority 2006, published 2010)", "origin": "cited, not measured here", "system": "LINE-1", "details": "background statement; taken as indication of non occurrence of the kDNA integration"}
{"smiles": "Cc1cn([C@H]2C[C@H](N=[N+]=[N-])[C@@H](CO)O2)c(=O)[nH]c1=O", "note": "[AZT]", "values": [{"measurement": "effect on retrotransposition of LINE-1", "result": "prevented the retrotransposition of LINE-1"}]}
